# Measurements as given in US20050191348A1 (priority 2004, published 2005).
# Marks after values point to notes of the source that are not given here.
# How the values were obtained:
# PC12 cells [1] = details: PC12, Aβ1-42 10 μM 24 h
# PC12 cells [2] = assay: Cell death under serum deprivation (apoptotic cell death detection ELISA), PC12; format: cell-based, rat; details: PC12, 24 h serum deprivation, significant at 1 and 10 μM
# Experimental: Two different neuronal cell lines were used: the rat PC12 and the human neuroblastoma SH-SY5Y cells.
# PC12 cells, originated from rat pheochromocytoma, were grown to confluence in T75 flasks containing DMEM (1000 mg/l glucose) and supplemented with 5% FCS, 10% horse serum, and a mixture of 1% of penicillin/streptomycin/nystatin.
# Cell cultures were incubated at 37° C. in a humid 5% CO2-95% air environment. For cell viability assays, cells were treated with various drugs in serum free media containing 0.1% BSA.
# In order to test cell viability, PC12 cells and SH-SY5Y neuroblastoma cels were incubated under serum deprivation and were untreated or treated with rasagiline (0.1. 1 or 10 μM) for 24 hours.
# MAO = details: Youdim et al., 2001b; cited from earlier work
# sAPPα = sAPPα release into medium of SH-SY5Y neuroblastoma cells; format: cell-based, human; details: 1 μM, 3 h, SH-SY5Y conditioned media, mean ± SE of three experiments
# Experimental: For the experiments, cells were seeded (2×10^6) onto 100-mm plates (for SH-SY5Y cells) or T75 flasks (for PC12 cells) in culture medium supplemented with full serum for 48 h. The cells were replaced with fresh medium containing 0.5% FCS for an additional 24 h (subconfluent culture), and then the experiments were performed in fresh medium containing 0.5% FCS for the indicated time periods at 37° C. After incubation with various drugs, the conditioned media were collected, centrifuged at 3500 g (10 min, 4° C.) to remove cell debris, and the cleared supernatants were concentrated 10-fold by lyophilization.
# (vii) Determination of sAPP. Protein concentrations of cell lysates were assayed using Bradford reagent (Sigma Chemical). Equal amounts of volumes of conditioned medium, standardized to lysate protein, were subjected to […], using either the MAbs 22C11 or 6E10 in 50 mM Tris-HCl, pH 7.4, 150 mM NaCl, containing 0.05% Tween 20 and 1% BSA. Immunoreactivity was detected using anti-mouse IgG-conjugated with HRP and an enhanced chemiluminescence method (Amersham, Pharmacia Biotech, UK). Blots were developed for different times to span a linear range of response, and the relative intensity of immunoreactive bands on the exposed films was quantified by computer-assisted densitometry program (Quantity One, Bio-Rad, Hercules, Calif., USA).
# It was of interest to determine whether rasagiline and other propargylamine-containing drugs also regulate APP processing. For this purpose, SH-SY5Y neuroblastoma cells were incubated for 3 h without or with 1 μM of various drugs (TV3326 and its S-isomer TV3279, rasagiline and its S-isomer TVP1022, selegiline, aminoindan), and sAPPα was measured in the media as described in Materials and Methods.
# We further characterized, in detail, the effect of rasagiline on APP processing and the signaling pathways that are involved. Thus, SH-SY5Y neuroblastoma cells were incubated for 3 h without or with increasing concentrations of rasagiline (0.1, 1 and 10 μM), and sAPPα was measured in the media as described in Materials and Methods.
# For the sAPPα release, SH-SY5Y neuroblastoma cells or PC12 cells were incubated for 3 h without or with increasing concentrations of propargylamine (0.1, 1 and 10 μM), and sAPPα was measured in the media as described in Materials and Methods.
smiles,measurement,setting,value
C#CCN[C@@H]1CCc2ccccc21 [TVP1022],protection against Aβ1-42 neurotoxicity,PC12 cells [1],protected PC12 cells from Aβ-evoked apoptosis
same,cell death induced by serum deprivation,PC12 cells [2],protected serum deprived PC12 cells from apoptosis
same,fold weaker as an inhibitor of MAO than rasagiline,MAO,at least 1000 fold
same,sAPPα secretion (fold/basal),sAPPα,2.43 ± 0.27^c fold/basal
